“Also recorded” adds a separate entry of the source.
Tests used:
[1] = tested on: adult mouse heart following myocardial infarction; experiment: Echocardiography after adult myocardial infarction, malonate from within an hour post-MI for two weeks; assay type: in vivo; conditions: for % EF (Ejection Fraction) / % FS (Fractional Shortening) / LV Mass (Left Ventricular Mass, Anatomical Weight) / LV Vol; d (Left Ventricular Volume; diastole) / LV Vol; s (Left Ventricular Volume; systole) / LVAWD (Left Ventricle Anterior Wall Thickness Diastole) / LVAWS (Left Ventricle Anterior Wall Thickness Systole) / LVIDD (Left Ventricle Internal Diameter Diastole) / LVIDS (Left Ventricle Internal Diameter Systole) / LVPWD (Left Ventricle Posterior Wall Thickness Diastole) / LVPWS (Left Ventricle Posterior Wall Thickness Systole): adult mice, mean ± SE
[2] = tested on: postnatal (P7) mouse heart following myocardial infarction; experiment: Echocardiography after myocardial infarction in P7 juvenile mice
Method: Neonatal mice at postnatal day 1 (P1) or day 7 (P7) were used for myocardial infarction (MI) surgery. Neonatal mice were subjected to MI surgeries as previously described. Briefly, neonates were anesthetized by hypothermia on ice. Lateral thoracotomy at the fourth intercostal space was performed by blunt dissection of the intercostal muscles after skin incision. A C-1 tapered needle attached to a 6-0 prolene suture (Ethicon Inc., Bridgewater, N.J.) was passed through the mid-ventricle below the left anterior descending coronary artery (LAD) and tied off to induce MI. The prolene suture was used to suture the ribs together and seal the chest wall incisions, and the skin was closed using adhesive glue (3M). The mice then were warmed on a heating pad until recovery. Sham-operated mice underwent the same procedure including hypothermic anesthesia, but not LAD ligation.
Neonatal mice were weighed and injected daily with either saline, 100 mg/kg dimethyl succinate (Sigma), 100 mg/kg dimethyl malonate (Sigma), or 100 μg/kg Atpenin A5 (Enzo Life Sciences). Dimethyl succinate and dimethyl malonate were dissolved in saline. Stock solution of Atpenin A5 at 0.1 mg/ml was initially prepared by dissolving in DMSO (Sigma) and then further diluted with saline before injection. Saline was used as a vehicle control for all experiments.
Transthoracic echocardiography was performed by using a Visual Sonics 770 ultrasonograph with a 25-MHz transducer (Visual Sonics, Toronto) as described previously^19. Mice were lightly anesthetized with 1% isoflurane and maintained on a heated platform. Two-dimensionally guided M-mode images from a parasternal long axis (PLAX) of the left ventricle (LV) were acquired at the tip of the papillary muscles. Wall thickness and chamber diameters were measured in both diastole and systole. Fractional shortening was calculated as (LVDd−LVDs)/LVDd×100, where LVDd is LV diameter in diastole and LVDs is LV diameter in systole. Ejection fraction was calculated as [(7.0/(2.4+LVDd)(LVDd)^3−(7.0/(2.4+LVDs)(LVDs)^3/(7.0/(2.4+LVDd)(LVDd)^3×100 and LV mass was calculated by using the formula [1.05×((Posterior Walldiastole+Anterior Walldiastole+LVDd)^3−(LVDd)^3)]. All parameters were measured over at least three consecutive cycles.
We injected dimethyl malonate (100 mg/kg, daily) in neonatal mice directly after birth for 2 weeks with an MI performed once the mice reached P7. We then analyzed the hearts following injury to determine whether malonate results in prolongation of the neonatal regenerative window (FIG. 10A).

[3] = Baseline before surgery and dosing (same values as saline Table 4A)
[4] = MI, 14 DPMI, dimethyl malonate 100 mg/kg intraperitoneally daily for 2 weeks post-MI
[5] = MI, 28 DPMI, dimethyl malonate 100 mg/kg intraperitoneally daily for 2 weeks post-MI
[6] = sham (SH), 14 DPMI, dimethyl malonate 100 mg/kg intraperitoneally daily for 2 weeks
[7] = sham (SH), 28 DPMI, dimethyl malonate 100 mg/kg intraperitoneally daily for 2 weeks
[8] = MI at P7 (n = 6), dimethyl malonate 100 mg/kg daily for 2 weeks from birth, echo 21 days post-MI (P7D21), mean ± SE
[9] = sham at P7 (SH, n = 6), dimethyl malonate 100 mg/kg daily for 2 weeks from birth, echo at day 21 (P7D21), mean ± SE

COC(=O)CC(=O)OC [Malonate, dimethyl malonate]
cardiac function by echocardiography (EF and FS) ([1]; adult MI, dimethyl malonate 100 mg/kg daily for 2 weeks, 28 days post-MI, vs saline): complete restoration of cardiac function; also recorded: significant improvement of cardiac function | cardiac function by echocardiography ([1]; adult MI, dimethyl malonate 100 mg/kg daily, 14 days post-MI, vs controls, difference was not significant): trending improvement in cardiac function | % EF (Ejection Fraction) [1, 3]: 57.761 ± 0.698% | % FS (Fractional Shortening) [1, 3]: 29.844 ± 0.434% | LV Mass (Left Ventricular Mass, Anatomical Weight) [1, 3]: 78.043 ± 3.706 mg | LV Vol; d (Left Ventricular Volume; diastole) [1, 3]: 59.761 ± 3.319 µL | LV Vol; s (Left Ventricular Volume; systole) [1, 3]: 25.363 ± 1.705 µL | LVAWD (Left Ventricle Anterior Wall Thickness Diastole) [1, 3]: 0.641 ± 0.006 mm | LVAWS (Left Ventricle Anterior Wall Thickness Systole) [1, 3]: 0.767 ± 0.005 mm | LVIDD (Left Ventricle Internal Diameter Diastole) [1, 3]: 3.731 ± 0.086 mm | LVIDS (Left Ventricle Internal Diameter Systole) [1, 3]: 2.619 ± 0.072 mm | LVPWD (Left Ventricle Posterior Wall Thickness Diastole) [1, 3]: 0.639 ± 0.006 mm | LVPWS (Left Ventricle Posterior Wall Thickness Systole) [1, 3]: 0.769 ± 0.005 mm | % EF (Ejection Fraction) [1, 4]: 44.421 ± 5.272% | % FS (Fractional Shortening) [1, 4]: 22.034 ± 2.951% | LV Mass (Left Ventricular Mass, Anatomical Weight) [1, 4]: 80.024 ± 8.731 mg | LV Vol; d (Left Ventricular Volume; diastole) [1, 4]: 74.738 ± 12.392 µL | LV Vol; s (Left Ventricular Volume; systole) [1, 4]: 44.249 ± 11.125 µL | LVAWD (Left Ventricle Anterior Wall Thickness Diastole) [1, 4]: 0.583 ± 0.015 mm | LVAWS (Left Ventricle Anterior Wall Thickness Systole) [1, 4]: 0.723 ± 0.020 mm | LVIDD (Left Ventricle Internal Diameter Diastole) [1, 4]: 4.047 ± 0.283 mm | LVIDS (Left Ventricle Internal Diameter Systole) [1, 4]: 3.188 ± 0.334 mm | LVPWD (Left Ventricle Posterior Wall Thickness Diastole) [1, 4]: 0.578 ± 0.014 mm | LVPWS (Left Ventricle Posterior Wall Thickness Systole) [1, 4]: 0.753 ± 0.016 mm | % EF (Ejection Fraction) [1, 5]: 48.940 ± 5.707% | % FS (Fractional Shortening) [1, 5]: 24.858 ± 3.214% | LV Mass (Left Ventricular Mass, Anatomical Weight) [1, 5]: 83.201 ± 16.390 mg | LV Vol; d (Left Ventricular Volume; diastole) [1, 5]: 84.656 ± 22.884 µL | LV Vol; s (Left Ventricular Volume; systole) [1, 5]: 47.375 ± 16.164 µL | LVAWD (Left Ventricle Anterior Wall Thickness Diastole) [1, 5]: 0.528 ± 0.033 mm | LVAWS (Left Ventricle Anterior Wall Thickness Systole) [1, 5]: 0.693 ± 0.042 mm | LVIDD (Left Ventricle Internal Diameter Diastole) [1, 5]: 4.183 ± 0.448 mm | LVIDS (Left Ventricle Internal Diameter Systole) [1, 5]: 3.193 ± 0.451 mm | LVPWD (Left Ventricle Posterior Wall Thickness Diastole) [1, 5]: 0.600 ± 0.020 mm | LVPWS (Left Ventricle Posterior Wall Thickness Systole) [1, 5]: 0.755 ± 0.017 mm | % EF (Ejection Fraction) [1, 6]: 52.458 ± 2.795% | % FS (Fractional Shortening) [1, 6]: 26.613 ± 1.724% | LV Mass (Left Ventricular Mass, Anatomical Weight) [1, 6]: 78.241 ± 13.192 mg | LV Vol; d (Left Ventricular Volume; diastole) [1, 6]: 71.304 ± 10.106 µL | LV Vol; s (Left Ventricular Volume; systole) [1, 6]: 33.993 ± 5.072 µL | LVAWD (Left Ventricle Anterior Wall Thickness Diastole) [1, 6]: 0.575 ± 0.045 mm | LVAWS (Left Ventricle Anterior Wall Thickness Systole) [1, 6]: 0.723 ± 0.047 mm | LVIDD (Left Ventricle Internal Diameter Diastole) [1, 6]: 4.005 ± 0.234 mm | LVIDS (Left Ventricle Internal Diameter Systole) [1, 6]: 2.940 ± 0.188 mm | LVPWD (Left Ventricle Posterior Wall Thickness Diastole) [1, 6]: 0.575 ± 0.035 mm | LVPWS (Left Ventricle Posterior Wall Thickness Systole) [1, 6]: 0.733 ± 0.046 mm | % EF (Ejection Fraction) [1, 7]: 48.208 ± 3.686% | % FS (Fractional Shortening) [1, 7]: 24.032 ± 2.173% | LV Mass (Left Ventricular Mass, Anatomical Weight) [1, 7]: 82.315 ± 5.106 mg | LV Vol; d (Left Ventricular Volume; diastole) [1, 7]: 68.006 ± 5.647 µL | LV Vol; s (Left Ventricular Volume; systole) [1, 7]: 35.538 ± 4.993 µL | LVAWD (Left Ventricle Anterior Wall Thickness Diastole) [1, 7]: 0.623 ± 0.014 mm | LVAWS (Left Ventricle Anterior Wall Thickness Systole) [1, 7]: 0.755 ± 0.010 mm | LVIDD (Left Ventricle Internal Diameter Diastole) [1, 7]: 3.940 ± 0.137 mm | LVIDS (Left Ventricle Internal Diameter Systole) [1, 7]: 2.998 ± 0.170 mm | LVPWD (Left Ventricle Posterior Wall Thickness Diastole) [1, 7]: 0.618 ± 0.013 mm | LVPWS (Left Ventricle Posterior Wall Thickness Systole) [1, 7]: 0.753 ± 0.013 mm | % EF (Ejection Fraction) [2, 8]: 69.751 ± 5.496% | % FS (Fractional Shortening) [2, 8]: 38.443 ± 4.043% | LV Mass (Left Ventricular Mass, Anatomical Weight) [2, 8]: 48.029 ± 9.293 mg | LV Vol; d (Left Ventricular Volume; diastole) [2, 8]: 24.289 ± 5.739 µL | LV Vol; s (Left Ventricular Volume; systole) [2, 8]: 8.741 ± 3.350 µL | LVAWD (Left Ventricle Anterior Wall Thickness Diastole) [2, 8]: 0.702 ± 0.029 mm | LVAWS (Left Ventricle Anterior Wall Thickness Systole) [2, 8]: 0.814 ± 0.023 mm | LVIDD (Left Ventricle Internal Diameter Diastole) [2, 8]: 2.490 ± 0.269 mm | LVIDS (Left Ventricle Internal Diameter Systole) [2, 8]: 1.578 ± 0.259 mm | LVPWD (Left Ventricle Posterior Wall Thickness Diastole) [2, 8]: 0.684 ± 0.037 mm | LVPWS (Left Ventricle Posterior Wall Thickness Systole) [2, 8]: 0.823 ± 0.022 mm | cardiac function by echocardiography (EF, FS, LVIDD, LVIDS) ([2]; MI at P7, dimethyl malonate 100 mg/kg daily for 2 weeks from birth, 21 days post-MI): restored to normal levels | % EF (Ejection Fraction) [2, 9]: 67.727 ± 3.762% | % FS (Fractional Shortening) [2, 9]: 37.135 ± 2.848% | LV Mass (Left Ventricular Mass, Anatomical Weight) [2, 9]: 62.439 ± 4.833 mg | LV Vol; d (Left Ventricular Volume; diastole) [2, 9]: 43.309 ± 5.883 µL | LV Vol; s (Left Ventricular Volume; systole) [2, 9]: 14.962 ± 3.612 µL | LVAWD (Left Ventricle Anterior Wall Thickness Diastole) [2, 9]: 0.650 ± 0.025 mm

— US11813239B2, “Compositions and methods for improving cardiac structure and/or function” (Wisconsin Alumni Research Foundation, priority 2020, dated 2023)
